“And” between values parts separate entries of the source, which are not always exact repeats. Equal entries are not always repeated. Where two headings read alike, the source gives them in different places.

Data set [1] concerns Caenorhabditis elegans. Kind of data set: Concentration response C. elegans L4 motility assay (WMicroTracker ONE), EC50. The format is cell-based, Caenorhabditis elegans (Bristol N2). The note with it: read-out: EC50 (motility). The procedure:
(§1) Methods to cultivate C. elegans (Bristol N2) and synchronize growth to the L4 stage were as described. WMicroTracker ONE (Phylumtech, Argentina) detects movement by measuring the scattering of infrared light beams that are projected into each well of a microtiter plate (two 880 nm beams/well in a 96w plate).
(§2) Synchronized C. elegans L4 were detached from agar and collected in M9 buffer. Worms were centrifuged for 1 min at 1,900 g and washed in S medium to decrease the concentration of E. coli OP50 that might interfere with infrared detection. Control and assay compounds (1 µL) in DMSO (Fisher Scientific, Cat# BP231-100) were spotted into each well of a clear, flat-bottomed 96-well polystyrene plate (Fisherbrand, Cat# FB012931). DMSO (1%) was used as the negative control. Approximately 70 L4 in 100 µL S medium were added per well. First pass screens employed 40 µM compound, and motility was measured every 20 min for 24 h in the WMicroTracker ONE reader in which the temperature was 25 ± 1 °C. Motility was normalized relative to the DMSO controls. Hits were defined as compounds that decreased motility to ≤ 25% of that in DMSO control worms.
For potent compounds, concentration response assays (nine concentrations: 0.005 µM to 40 or 100 µM) were conducted to measure the half-maximal effective concentration (EC50). Compounds were serially diluted in DMSO using 96-well, v-bottomed polypropylene dilution plates (ThermoFisher Scientific, Cat#: 249944) and 1 µL aliquots spotted into each well of the assay plates. Motility was measured as described above. Prism GraphPad, Version 8.0 (GraphPad Software, San Diego, CA) was used to calculate EC50 values using a non-linear sigmoidal four parameter logistic curve.

Data set [2] can be described thus: HEK293 cytotoxicity assay (resazurin). The data set is classed as cell-based, Human. The settings on record: human. How it is done:
(§3) Potent compounds were also evaluated for cytotoxicity against HEK293 cells. Cells were cultured at 37 °C and 5% in Dulbecco’s Modified Eagle Medium (DMEM; Gibco, Cat#: 11965-092) containing 10% heat-inactivated fetal bovine serum (FBS; Omega Scientific Inc., Cat#: FB02) and 1% penicillin-streptomycin (ThermoFisher Scientific, Cat#: 15140122), and then sub-cultured when 60–80% confluent. Cells were detached with 0.05% trypsin/EDTA (ThermoFisher Scientific, Cat#: 25300054) and centrifuged for 5 min at 1,900 g.
(§4) Screens were performed over 11 compound concentrations (0.00007–40 µM) that had been prepared in DMSO. Aliquots (1 µL) were spotted into each well of a clear-bottomed, 96-well, polystyrene assay plate (Fisher Scientific, Cat#: FB012931). Approximately 20,000 HEK293 cells in 99 µL of the above supplemented DMEM were then added to each well. After 46 h at 37 °C and 5% CO2, 20 µL 0.5 mM resazurin (ThermoFisher Scientific, Cat#: B21187.03) were added and the incubation continued for 2 h at 37 °C [27]. Fluorescence was measured in a 2104 EnVision Multilabel Plate Reader (PerkinElmer) at 560 and 590 nm excitation and emission wavelengths, respectively. Raw data were exported from the EnVision Workstation software (version 1.13.3009.1401; PerkinElmer) into Prism GraphPad, and the half-maximal cytotoxic concentration (CC50) values were calculated using a non-linear regression curve.

Data set [3] deals with Caenorhabditis elegans. Kind of data set: Primary screen, infrared-based (WMicroTracker ONE) C. elegans L4 motility assay at 40 µM. The format is cell-based, Caenorhabditis elegans (Bristol N2). The settings on record: primary screen at 40 µM; for C. elegans Mean motility vs. DMSO control (%): C. elegans L4; for C. elegans NOTES (HIT): hit if motility < 25%. How it is done:
as §1, §2

The next data set relates to HEK293 cells. The data set is described as follows: HEK293 cytotoxicity assay (resazurin). The format is cell-based, Human. The procedure: as §3, §4
Background: Resazurin is reduced to fluorescent resorufin, in cell work by metabolically active cells.

A further data set deals with C. elegans L4. Set-up: method as in PMID 38486232. The note with it: GHPB screen, WMicroTracker ONE; cited from earlier work.
A further data set deals with Haemonchus contortus. Set-up: method as in PMID 38486232. The note with it: GHPB screen, WMicroTracker ONE; cited from earlier work.
In the next data set the test system is C. elegans. The note with it: read-out: EC50 previously recorded, cited from earlier work.
[4] abbreviates: Caenorhabditis elegans, C. elegans L4, after 12 h.
The mark [5] stands for this setting: HEK293 cell viability after 48 h, read-out: CC50.

On to `CCOCn1c(-c2ccc(Cl)cc2)c(C#N)c(Br)c1C(F)(F)F` [chlorfenapyr], for which the concentration for a half-maximal effect (EC50) in the data set with Caenorhabditis elegans [1] (setting [4]) came to 1650 ± 449 nM. For the same compound, the CC50 at 48 h in data set [2] (setting [5]) came to 20.9 ± 7.34 µM. Further, in the data set on Caenorhabditis elegans [3], the “C. elegans Mean motility vs. DMSO control (%)” value was found to be 0.26% and the “C. elegans NOTES (HIT)” value is given as “HIT”.

Consider `O=C(Nc1ccc(Cl)c(C(F)(F)F)c1)Nc1ccc(Cl)c(C(F)(F)F)c1` [flucofuron], for which, in the data set on Caenorhabditis elegans [1] (C. elegans L4, after 24 h), the EC50 is 20600 ± 10700 nM. The cytotoxic concentration (CC50) in the data set on HEK293 cells (HEK293 cell viability after 48 h) is 453 ± 331 nM. Moreover, in the data set with Caenorhabditis elegans [3], the “C. elegans Mean motility vs. DMSO control (%)” value was 20.31% and the “C. elegans NOTES (HIT)” value was “HIT”. Besides, the “hit in screen against C. elegans L4” value with C. elegans L4 was “hit only against the parasite”. In the data set on Haemonchus contortus, the “hit in screen against exsheathed L3 of Haemonchus contortus” value is reported as “hit”.

In the case of `CC(F)c1ncnc(NCCc2ccc(OC(F)(F)F)cc2)c1Cl` (stereo not shown) [flufenerim], the half-maximal effective concentration (EC50) with Caenorhabditis elegans [1] (C. elegans L4, after 12 h) amounted to 211 ± 34 nM. In addition, in the data set on Caenorhabditis elegans [3], the “C. elegans Mean motility vs. DMSO control (%)” value came to 0.26% and the “C. elegans NOTES (HIT)” value is listed as “HIT”. Further, in the data set with C. elegans L4, the “hit in screen against C. elegans L4” value was “hit”. In the data set on Haemonchus contortus, the “hit in screen against exsheathed L3 of Haemonchus contortus” value is recorded as “hit”.

For `COc1ccc2c(c1)c(CC(=O)O)c(C)n2C(=O)c1ccc(Cl)cc1` [indomethacin, reference compound], the EC50 in the data set on Caenorhabditis elegans [1] (Caenorhabditis elegans, C. elegans L4, after 24 h) came to 23200 ± 14100 nM. In addition, the “cytotoxicity to HEK293 cells (in words)” value in the data set with HEK293 cells (HEK293 cells) is recorded as “not cytotoxic”. In addition, the CC50 at 48 h in data set [2] (HEK293 cells, HEK293 cell viability after 48 h, read-out: CC50) is greater than 100 µM. For the same compound, in the data set on Caenorhabditis elegans [3], the “C. elegans Mean motility vs. DMSO control (%)” value came to 18.64% and the “C. elegans NOTES (HIT)” value is “HIT”.

In the case of `CO/N=C1\C[C@]2(C[C@@H]3C[C@@H](C/C=C(\C)C[C@@H](C)/C=C/C=C4\CO[C@@H]5[C@H](O)C(C)=C[C@@H](C(=O)O3)[C@]45O)O2)O[C@H](/C(C)=C/C(C)C)[C@H]1C` [moxidectin, reference compound], in the data set with Caenorhabditis elegans [1] (Caenorhabditis elegans, 1 h), the EC50 is 128 ± 45 nM. This compound also yielded a half-maximal cytotoxic concentration (CC50) at 48 h in data set [2] of 13.3 ± 9.47 µM. Also, in the data set with Caenorhabditis elegans [3], the “C. elegans Mean motility vs. DMSO control (%)” value is recorded as 0.28% and the “C. elegans NOTES (HIT)” value is recorded as “HIT”.

Turning to `CO[C@H]1C[C@H](O[C@@H]2/C(C)=C/C[C@@H]3C[C@@H](C[C@]4(CC[C@H](C)[C@@H](C5CCCCC5)O4)O3)OC(=O)[C@@H]3C=C(C)/C(=N/O)[C@H]4OC/C(=C\C=C\[C@@H]2C)[C@]43O)O[C@@H](C)[C@@H]1O` [selamectin, reference compound], in the data set on Caenorhabditis elegans [1] (Caenorhabditis elegans, C. elegans L4, after 3 h), the EC50 worked out at 722 ± 555 nM. Further, the CC50 at 48 h in data set [2] (setting [5]) amounted to 9.88 ± 4.26 µM. Besides, in the data set on Caenorhabditis elegans [3], the “C. elegans Mean motility vs. DMSO control (%)” value was determined as 2.31% and the “C. elegans NOTES (HIT)” value is “HIT”.

With `CCc1nn(C)c(C(=O)NCc2ccc(Oc3ccc(C)cc3)cc2)c1Cl` [tolfenpyrad], the concentration for a half-maximal effect (EC50) in the data set on Caenorhabditis elegans [1] (setting [4]) came to 950 ± 256 nM. In data set [2] (setting [5]), the cytotoxic concentration (CC50) at 48 h stood at 33.8 ± 31.4 µM. In the data set with Caenorhabditis elegans [3], the “C. elegans Mean motility vs. DMSO control (%)” value was 0.26% and the “C. elegans NOTES (HIT)” value is “HIT”. Besides, the EC50 with C. elegans (after 24 h) is 200 ± 40 nM.

On to ivermectin [reference compound], for which the 50% effective concentration (EC50) in the data set with Caenorhabditis elegans [1] (C. elegans L4, after 1 h) was 130 ± 51 nM; with C. elegans (after 90 min), 190 ± 10 nM. Moreover, the “C. elegans Mean motility vs. DMSO control (%)” value in the data set on Caenorhabditis elegans [3] (listed as MMV672931) was 3.37% and 9.96%. In addition, the “C. elegans NOTES (HIT)” value in the data set with Caenorhabditis elegans [3] is on record as “HIT”.

In general, EC50 refers to the concentration needed to bring the measured effect to its halfway point. The term CC50 denotes the concentration giving 50% cytotoxicity.

These data come from PMC12502323, “Discovery of small molecules with anthelmintic potential in the Medicines for Malaria Venture’s COVID and Global Health Priority Boxes using an infrared-based assay for Caenorhabditis elegans motility” (BMC Research Notes, 2025).
